Experimental data from patent US8471061B2 (priority 2004, dated 2013).
Where two headings read alike, the source gives them in different places.

Columns and labels:
[1] = Stimulation test (sense of taste, solid put on the tongue); type: in vivo; design: key to sense of taste stimulation: 0: No stimulation is felt.; 1: There is a stimulation but weak.; 2: There is a strong stimulation; conditions: for sense of taste stimulation: 5 mg of solid on the tongue, one score per subject, five subjects
Method: Each of five subjects has evaluated the sense of taste of the 5-aminolevulinic acid phosphate obtained in Example 1, in accordance with the following criteria by directly putting 5 mg of its solid on the tongue.
• 0: No stimulation is felt. • 1: There is a stimulation but weak. • 2: There is a strong stimulation.
The sense of taste was evaluated in the same manner as in Example 6, except that 5 mg of solid of 5-aminolevulinic acid hydrochloride was used.

[2] = test system: New Zealand white rabbits (males), shaved uninjured skin; conditions: in vivo
Method: Using three New Zealand white rabbits (males), a solution prepared by dissolving 0.5 g of 5-aminolevulinic acid phosphate in 0.5 ml of distilled water (pH 3.1) was applied for 4 hours to a 2.5 cm square area of the shaved uninjured skin of each animal which was then observed for 1, 24, 48 and 72 hours.

[3] = Test on the generation of silver chloride precipitation with silver nitrate; type: physicochemical; conditions: 0.5 g with 0.5 g of silver nitrate in 10 ml of ion exchange water, 5 minutes
Method: In 10 ml of ion exchange water, 0.5 g of 5-aminolevulinic acid phosphate and 0.5 g of silver nitrate were dissolved, the mixture was allowed to stand still for 5 minutes, and conditions of the liquid was observed. […] In this connection, 0.5 g of 5-aminolevulinic acid hydrochloride and 0.5 g of silver nitrate were dissolved in 10 ml of ion exchange water and allowed to stand still for 5 minutes, and conditions of the liquid was observed.
In 10 ml of ion exchange water, 0.5 g of 5-aminolevulinic acid nitrate and 0.5 g of silver nitrate were dissolved, the mixture was allowed to stand still for 5 minutes, and conditions of the liquid was observed.
In this connection, 0.5 g of 5-aminolevulinic acid hydrochloride and 0.5 g of silver nitrate were dissolved in 10 ml of ion exchange water and allowed to stand still for 5 minutes, and conditions of the liquid was observed.
In 10 ml of ion exchange water, 0.5 g of 5-aminolevulinic acid p-toluenesulfonate and 0.5 g of silver nitrate were dissolved, the mixture was allowed to stand still for 5 minutes, and conditions of the liquid was observed.

apple variety “Fuji” = test: Coloring test of apple; type: in vivo
Method: The 5-aminolevulinic acid phosphate obtained in Example 1 was dissolved in ion exchange water to the predetermined concentration shown in the following table. A spreader (“Approach BI” manufactured by Maruwa Biochemical) was added to the liquid to a concentration of 0.1% by weight. The pH was adjusted using phosphoric acid.
An aqueous 5-aminolevulinic acid hydrochloride solution was prepared in the same manner, except that the above-described 5-aminolevulinic acid phosphate was changed to 5-aminolevulinic acid hydrochloride and the phosphoric acid for pH adjustment was changed to hydrochloric acid.
The thus prepared liquid was sprayed at a ratio of 2 liters per branch on three main branches where young fruits of an apple variety “Fuji” bored but not yet colored into red (September 15). About 2 months thereafter (November 6), the apples were harvested and their coloring degree was examined. A color meter CR-200 manufactured by MINOLTA CAMERA was used for the measurement of color.
The 5-aminolevulinic acid nitrate obtained in Example 16 was dissolved in ion exchange water to the predetermined concentration shown in Table 16. A spreader (“Approach BI” manufactured by Maruwa Biochemical) was added to the liquid to a concentration of 0.1% by weight. The pH was adjusted using nitric acid.
A solution was prepared in the same manner, except that the above-described 5-aminolevulinic acid nitrate was changed to 5-aminolevulinic acid hydrochloride and the nitric acid was changed to hydrochloric acid.
The 5-aminolevulinic acid p-toluenesulfonate obtained in Example 23 was dissolved in ion exchange water to the predetermined concentration shown in Table 24. A spreader (“Approach B1” manufactured by Maruwa Biochemical) was added to the liquid to a concentration of 0.1% by weight. The pH was adjusted using p-toluenesulfonic acid.
A solution was prepared in the same manner, except that the above-described 5-aminolevulinic acid p-toluenesulfonate was changed to 5-aminolevulinic acid hydrochloride and the p-toluenesulfonic acid was changed to hydrochloric acid.

[4] = test system: spiderwort Commelina communis; test: Plant activating effect, foliar application, spiderwort; type: in vivo; conditions: 21 days, 12 plants
Method: A total of 12 pots, in which 600 g of volcanic ash soil was packed in a porcelain pot of 12 cm in inner diameter, and 1 plant of a spiderwort Commelina communis grown to a height of 15 cm was planted in 1 pot, were prepared and placed under a constant temperature environment of 20° C., and foliar application treatment was carried out once a day using the following application liquids. Conditions of the leaves 21 days thereafter were observed.

[5] = male, New Zealand white, rabbit, 1 h
[6] = male, New Zealand white, rabbit, 24 h
[7] = male, New Zealand white, rabbit, 48 h
[8] = male, New Zealand white, rabbit, 72 h

SMILES: Cl.NCC(=O)CCC(=O)O [5-aminolevulinic acid hydrochloride, reference compound]
- sense of taste stimulation [1]: 2
- judgement by the OECD Guideline from pH (animal test not carried out) ([2]; rabbit): judged corrosive
- generation of precipitate [3]: Generation of the precipitate was found
- Coloring, L (apple variety “Fuji”; 100 ppm (pH 5.0)): 42.28
- Coloring, a (apple variety “Fuji”; 100 ppm (pH 5.0)): 25.96
- Coloring, b (apple variety “Fuji”; 100 ppm (pH 5.0)): 14.72
- Coloring, L (apple variety “Fuji”; 200 ppm (pH 4.8)): 42.34
- Coloring, a (apple variety “Fuji”; 200 ppm (pH 4.8)): 30.92
- Coloring, b (apple variety “Fuji”; 200 ppm (pH 4.8)): 14.41
- plants judged 0: Abnormality was not found on the leaf surface ([4]; 1 ppm in tap water): 2 plants
- plants judged 1: A region discolored to yellow was found on the leaf surface ([4]; 1 ppm in tap water): 7 plants
- plants judged 2: A necrotic region was found on the leaf surface ([4]; 1 ppm in tap water): 3 plants
- plants judged 0: Abnormality was not found on the leaf surface ([4]; 10 ppm in tap water): 5 plants
- plants judged 1: A region discolored to yellow was found on the leaf surface ([4]; 10 ppm in tap water): 5 plants
- plants judged 2: A necrotic region was found on the leaf surface ([4]; 10 ppm in tap water): 2 plants
- plants judged 0: Abnormality was not found on the leaf surface ([4]; 100 ppm in tap water): 5 plants
- plants judged 1: A region discolored to yellow was found on the leaf surface ([4]; 100 ppm in tap water): 4 plants
- plants judged 2: A necrotic region was found on the leaf surface ([4]; 100 ppm in tap water): 3 plants

SMILES: NCC(=O)CCC(=O)O.O=P(O)(O)O [5-aminolevulinic acid phosphate, 5-aminolevulinic Acid Phosphate]
- stimulation on the tongue in comparison with hydrochloride ([1]; 5 mg of solid): strong stimulation was not found
- sense of taste stimulation [1]: 1
- Formation of dropsy and edema (formed numbers), per rabbit ([2]; male, New Zealand white, 1 h): 0
- Formation of erythema and dry crust (formed numbers), per rabbit ([2]; male, New Zealand white, 1 h): 1
- Formation of dropsy and edema (formed numbers), per rabbit ([2]; male, New Zealand white, 24 h): 0
- Formation of erythema and dry crust (formed numbers), per rabbit ([2]; male, New Zealand white, 24 h): 1
- Formation of dropsy and edema (formed numbers), per rabbit ([2]; male, New Zealand white, 48 h): 0
- Formation of erythema and dry crust (formed numbers), per rabbit ([2]; male, New Zealand white, 48 h): 0
- Formation of dropsy and edema (formed numbers), per rabbit ([2]; male, New Zealand white, 72 h): 0
- Formation of erythema and dry crust (formed numbers), per rabbit ([2]; male, New Zealand white, 72 h): 0
- Total formed numbers after 24 hours and 72 hours ([2]; male, New Zealand white, rabbit): Total formed numbers after 24 hours and 72 hours: 3
- Formation of dropsy and edema (formed numbers) [2, 5]: 0
- Formation of dropsy and edema, Total of three rabbits [2, 5]: 0
- Formation of erythema and dry crust (formed numbers) [2, 5]: 0
- Formation of erythema and dry crust, Total of three rabbits [2, 5]: 3
- skin reaction observed ([2]; male, New Zealand white, rabbit, 4 h): very slight red spots were observed within 24 hours, but became normal when observed after 48 hours
- Formation of dropsy and edema (formed numbers) [2, 6]: 0
- Formation of dropsy and edema, Total of three rabbits [2, 6]: 0
- Formation of erythema and dry crust (formed numbers) [2, 6]: 0
- Formation of erythema and dry crust, Total of three rabbits [2, 6]: 3
- Formation of dropsy and edema (formed numbers) [2, 7]: 0
- Formation of dropsy and edema, Total of three rabbits [2, 7]: 0
- Formation of erythema and dry crust (formed numbers) [2, 7]: 0
- Formation of erythema and dry crust, Total of three rabbits [2, 7]: 0
- Formation of dropsy and edema (formed numbers) [2, 8]: 0
- Formation of dropsy and edema, Total of three rabbits [2, 8]: 0
- Formation of erythema and dry crust (formed numbers) [2, 8]: 0
- Formation of erythema and dry crust, Total of three rabbits [2, 8]: 0
- skin stimulation ([2]; rabbit): skin stimulation was not observed
- stimulation classification (United Nations recommendation GHS) ([2]; rabbit): does not come under a stimulus substance
- generation of precipitate [3]: Generation of the precipitate was not found
- Coloring, L (apple variety “Fuji”; 100 ppm (pH 5.0)): 42.37
- Coloring, a (apple variety “Fuji”; 100 ppm (pH 5.0)): 27.45
- Coloring, b (apple variety “Fuji”; 100 ppm (pH 5.0)): 14.54
- Coloring, L (apple variety “Fuji”; 200 ppm (pH 5.4)): 42.43
- Coloring, a (apple variety “Fuji”; 200 ppm (pH 5.4)): 31.06
- Coloring, b (apple variety “Fuji”; 200 ppm (pH 5.4)): 14.63
- Coloring of red compared with 5-aminolevulinic acid hydrochloride (apple variety “Fuji”; in vivo): Coloring of red was denser
- plants judged 0: Abnormality was not found on the leaf surface ([4]; 1 ppm in tap water): 6 plants
- plants judged 1: A region discolored to yellow was found on the leaf surface ([4]; 1 ppm in tap water): 5 plants
- plants judged 2: A necrotic region was found on the leaf surface ([4]; 1 ppm in tap water): 1 plant^ plants
- plants judged 0: Abnormality was not found on the leaf surface ([4]; 10 ppm in tap water): 7 plants
- plants judged 1: A region discolored to yellow was found on the leaf surface ([4]; 10 ppm in tap water): 3 plants
- plants judged 2: A necrotic region was found on the leaf surface ([4]; 10 ppm in tap water): 2 plants
- plants judged 0: Abnormality was not found on the leaf surface ([4]; 100 ppm in tap water): 6 plants
- plants judged 1: A region discolored to yellow was found on the leaf surface ([4]; 100 ppm in tap water): 4 plants
- plants judged 2: A necrotic region was found on the leaf surface ([4]; 100 ppm in tap water): 2 plants
